{"source": "patent US20120029190A1", "about": "“COMPOUNDS FOR TREATING DISORDERS MEDIATED BY METABOTROPIC GLUTAMATE RECEPTOR 5, AND METHODS OF USE THEREOF” (priority 2009, published 2012)"}
{"molecular_target": "T1, human recombinant mGluR5 receptor (Homo sapiens, UniProt P41594)", "T1 construct": "expressed in transfected cells; expression induced with doxycycline", "T1 sequence (P41594 21-1212)": "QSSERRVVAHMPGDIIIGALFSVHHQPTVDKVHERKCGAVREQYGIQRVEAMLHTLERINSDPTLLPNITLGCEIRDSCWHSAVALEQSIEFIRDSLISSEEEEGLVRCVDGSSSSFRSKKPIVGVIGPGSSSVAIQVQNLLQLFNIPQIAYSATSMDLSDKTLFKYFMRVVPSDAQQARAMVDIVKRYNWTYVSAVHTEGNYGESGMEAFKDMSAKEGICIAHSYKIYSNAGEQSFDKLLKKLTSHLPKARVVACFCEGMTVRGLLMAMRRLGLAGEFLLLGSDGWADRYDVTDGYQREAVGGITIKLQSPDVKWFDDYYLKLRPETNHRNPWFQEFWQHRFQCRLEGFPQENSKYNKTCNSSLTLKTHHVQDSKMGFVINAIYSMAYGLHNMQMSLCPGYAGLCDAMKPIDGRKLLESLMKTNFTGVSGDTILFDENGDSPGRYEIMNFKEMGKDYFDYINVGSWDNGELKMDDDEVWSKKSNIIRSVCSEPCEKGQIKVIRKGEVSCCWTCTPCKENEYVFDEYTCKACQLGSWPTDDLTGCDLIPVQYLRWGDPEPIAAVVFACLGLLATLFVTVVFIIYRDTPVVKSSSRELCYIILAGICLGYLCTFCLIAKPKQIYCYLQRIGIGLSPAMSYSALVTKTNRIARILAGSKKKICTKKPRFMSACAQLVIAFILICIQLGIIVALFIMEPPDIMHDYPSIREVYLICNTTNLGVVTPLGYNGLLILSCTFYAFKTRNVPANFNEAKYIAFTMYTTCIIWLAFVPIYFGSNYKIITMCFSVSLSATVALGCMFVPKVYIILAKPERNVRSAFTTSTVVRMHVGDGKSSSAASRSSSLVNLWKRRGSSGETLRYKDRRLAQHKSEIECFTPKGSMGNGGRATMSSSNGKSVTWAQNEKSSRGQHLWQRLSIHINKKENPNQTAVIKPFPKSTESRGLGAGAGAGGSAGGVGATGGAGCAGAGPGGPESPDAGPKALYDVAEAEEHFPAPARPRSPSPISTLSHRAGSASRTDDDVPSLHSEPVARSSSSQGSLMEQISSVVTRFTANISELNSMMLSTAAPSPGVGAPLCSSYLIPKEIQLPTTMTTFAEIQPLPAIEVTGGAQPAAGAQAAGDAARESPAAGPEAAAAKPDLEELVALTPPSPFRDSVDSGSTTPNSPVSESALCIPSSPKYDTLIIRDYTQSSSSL", "experiment": "mGluR5 in vitro functional assay (aequorin cell line, inhibition of glutamate EC80 response)", "type": "cell-based", "conditions": "not given", "summary_of_the_method": "(§1)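 Doxycycline-induced (600 ng/mL, 18 h) aequorin cells loaded with coelenterazine h ≥4 h at room temperature; compound preincubated 3 min before glutamate at EC80. Luminescence recorded, normalized to digitonin or 20 mM ATP wells; % inhibition of EC80 response fitted by sigmoidal nonlinear regression.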", "units": {"IC50": "nM"}}
{"smiles": "N#Cc1ccc(N2CCc3oc(-c4ccccn4)nc3C2)cc1F", "note": "[Compound 36, 2-Fluoro-4-(2-(pyridin-2-yl)-6,7-dihydrooxazolo[4,5-c]pyridin-5(4H)-yl)benzonitrile]", "IC50": "> 10000"}
{"molecular_target": "T1, human recombinant mGluR5 receptor", "experiment": "mGluR5 in vitro functional assay (aequorin cell line, inhibition of glutamate EC80 response)", "type": "cell-based", "conditions": "Table 1; aequorin cell line expressing human mGluR5, reference agonist glutamate at EC80; obtained in duplicate; read-out: IC50", "summary_of_the_method": "as §1", "units": {"IC50": "nM"}}
{"smiles": "c1ccc(-c2nc3c(o2)CN(c2ccccn2)CC3)nc1", "note": "[Compound 2, 2,5-Di(pyridin-2-yl)-4,5,6,7-tetrahydro-oxazolo[5,4-c]pyridine]", "IC50": "< 10000"}
{"smiles": "Clc1cccc(N2CCCc3oc(-c4ccccn4)nc3C2)c1", "note": "[Compound 102, 5-(3-Chlorophenyl)-2-(pyridin-2-yl)-5,6,7,8-tetrahydro-4H-oxazolo[4,5-c]azepine]", "IC50": "< 1000"}
{"smiles": "Cc1cccc(-c2nc3c(o2)CN(c2ccccn2)CC3)c1", "note": "[Compound 58, 5-(Pyridin-2-yl)-2-m-tolyl-4,5,6,7-tetrahydrooxazolo[5,4-c]pyridine]", "IC50": "< 1000"}
{"smiles": "Clc1cccc(-c2cn3c(n2)CN(c2ccccn2)CC3)c1", "note": "[Compound 107, 2-(3-Chlorophenyl)-7-(pyridin-2-yl)-5,6,7,8-tetrahydroimidazol[1,2-a]pyrazine]", "IC50": "< 10000"}
{"smiles": "N#Cc1cccnc1N1CCc2oc(-c3ccccn3)nc2C1", "note": "[Compound 28, 2-(2-(Pyridin-2-yl)-6,7-dihydrooxazolo[4,5-c]pyridin-5(4H)-yl)nicotinonitrile]", "IC50": "< 1000"}
{"smiles": "N#Cc1cc(F)cc(N2CCc3nc(-c4ccccn4)oc3C2)c1", "note": "[Compound 4, 3-Fluoro-5-(2-(pyridin-2-yl)-6,7-dihydrooxazolo[5,4-c]pyridin-5(4H)-yl)benzonitrile]", "IC50": "< 1000"}
{"smiles": "N#Cc1cccnc1N1CCc2oc(-c3ccc(C(F)(F)F)cc3)nc2C1", "note": "[Compound 44, 2-(2-(4-(Trifluoromethyl)phenyl)-6,7-dihydrooxazolo[4,5-c]pyridin-5(4H)-yl)nicotinonitrile]", "IC50": "> 10000"}
{"smiles": "N#Cc1cccc(N2CCc3nc(-c4ccccn4)oc3C2)n1", "note": "[Compound 6, 6-(2-(Pyridin-2-yl)-6,7-dihydrooxazolo[5,4-c]pyridin-5(4H)-yl)picolinonitrile]", "IC50": "< 10000"}
{"smiles": "N#Cc1cc(N2CCc3oc(-c4ccccn4)nc3C2)cc(C(F)(F)F)c1", "note": "[Compound 32, 3-(2-(Pyridin-2-yl)-6,7-dihydrooxazolo[4,5-c]pyridin-5(4H)-yl)-5-(trifluoromethyl)benzonitrile]", "IC50": "< 1000"}
{"smiles": "Clc1ccc(-c2nc3c(o2)CN(c2ccccn2)CC3)cc1", "note": "[Compound 70, 2-(4-Chlorophenyl)-5-(pyridin-2-yl)-4,5,6,7-tetrahydrooxazolo[5,4-c]pyridine]", "IC50": "< 1000"}
{"smiles": "COc1cc(F)cc(N2CCc3oc(-c4ccccn4)nc3C2)c1", "note": "[Compound 56, 5-(3-Fluoro-5-methoxyphenyl)-2-(pyridin-2-yl)-4,5,6,7-tetrahydrooxazolo[4,5-c]pyridine]", "IC50": "< 1000"}
{"smiles": "N#Cc1cccnc1N1CCc2nc(-c3ccccc3)oc2C1", "note": "[Compound 19, 2-(2-Phenyl-6,7-dihydrooxazolo[5,4-c]pyridin-5(4H)-yl)nicotinonitrile]", "IC50": "< 10000"}
{"smiles": "Cc1cccc(-c2nc3c(o2)CCN(c2ncccc2C#N)C3)c1", "note": "[Compound 61, 2-(2-m-Tolyl-6,7-dihydrooxazolo[4,5-c]pyridin-5(4H)-yl)nicotinonitrile]", "IC50": "< 1000"}
{"smiles": "Clc1cccc(-c2nc3c(o2)CCN(c2cccnc2)C3)c1", "note": "[Compound 51, 2-(3-Chlorophenyl)-5-(pyridin-3-yl)-4,5,6,7-tetrahydrooxazolo[4,5-c]pyridine]", "IC50": "< 1000"}
{"smiles": "N#Cc1cccc(-c2nc3c(o2)CN(c2cccc(C#N)c2)CC3)c1", "note": "[Compound 67, 3,3′-(6,7-Dihydrooxazolo[5,4-c]pyridine-2,5(4H)-diyl)dibenzonitrile]", "IC50": "< 1000"}
{"smiles": "COc1cccc(N2CCCc3oc(-c4ccccn4)nc3C2)n1", "note": "[Compound 103, 5-(6-Methoxypyridin-2-yl)-2-(pyridin-2-yl)-5,6,7,8-tetrahydro-4H-oxazolo[4,5-c]azepine]", "IC50": "< 1000"}
{"smiles": "Clc1cccc(N2CCn3nc(-c4ccccn4)nc3C2)c1", "note": "[Compound 113, 7-(3-Chlorophenyl)-2-(pyridin-2-yl)-5,6,7,8-tetrahydro-[1,2,4]triazolo[1,5-a]pyrazine]", "IC50": "< 1000"}
{"smiles": "N#Cc1cccc(-c2nc3c(o2)CCN(c2cccc(C#N)c2)C3)c1", "note": "[Compound 64, 3,3′-(6,7-Dihydrooxazolo[4,5-c]pyridine-2,5(4H)-diyl)dibenzonitrile]", "IC50": "< 1000"}
{"smiles": "COc1cccc(-c2nc3c(o2)CN(c2ncccc2C#N)CC3)c1", "note": "[Compound 72, 2-(2-(3-Methoxyphenyl)-6,7-dihydrooxazolo[5,4-c]pyridin-5(4H)-yl)nicotinonitrile]", "IC50": "< 1000"}
{"smiles": "N#Cc1cccc(N2Cc3nc(-c4ccccn4)oc3C2)c1", "note": "[Compound 84, 3-(2-(Pyridin-2-yl)-4H-pyrrolo[3,4-d]oxazol-5(6H)-yl)benzonitrile]", "IC50": "< 1000"}
{"molecular_target": "T1, human recombinant mGluR5 receptor", "experiment": "mGluR5 in vitro functional assay (aequorin cell line, inhibition of glutamate EC80 response)", "type": "cell-based", "conditions": "Table 2; aequorin cell line expressing human mGluR5, reference agonist glutamate at EC80; obtained in duplicate; read-out: IC50", "summary_of_the_method": "as §1", "units": {"IC50": "nM"}}
{"smiles": "Fc1ccc([C@H]2CCc3oc(-c4ccccn4)nc3C2)c(Cl)c1", "note": "(single isomer, unassigned) [Compound 225]", "IC50": "< 1000"}
{"smiles": "Fc1ccc(N2CCCc3oc(-c4ccccn4)nc3C2)cc1Cl", "note": "[Compound 144, 5-(3-chloro-4-fluorophenyl)-2-(pyridin-2-yl)-5,6,7,8-tetrahydro-4H-oxazolo[4,5-c]azepine]", "IC50": "< 1000"}
{"smiles": "Clc1ccccc1N1CCc2oc(-c3ccccn3)nc2C1", "note": "[Compound 156, 5-(2-Chlorophenyl)-2-(pyridin-2-yl)-4,5,6,7-tetrahydrooxazolo[4,5-c]pyridine]", "IC50": "< 1000"}
{"smiles": "COc1cccc(N2CCc3oc(-c4ccccn4)nc3C2)c1", "note": "[Compound 127, 5-(3-methoxyphenyl)-2-(pyridin-2-yl)-4,5,6,7-tetrahydrooxazolo[4,5-c]pyridine]", "IC50": "< 1000"}
{"smiles": "N#Cc1ccc(F)cc1N1CCc2oc(-c3ccccn3)nc2C1", "note": "[Compound 176, 4-Fluoro-2-(2-(pyridin-2-yl)-6,7-dihydrooxazolo[4,5-c]pyridin-5(4H)-yl)benzonitrile]", "IC50": "< 1000"}
{"smiles": "Fc1ccc(-c2nc3c(o2)CCCN(c2cc(F)cc(Cl)c2)C3)nc1", "note": "[Compound 205, 5-(3-Chloro-5-fluorophenyl)-2-(5-fluoropyridin-2-yl)-5,6,7,8-tetrahydro-4H-oxazolo[4,5-c]azepine]", "IC50": "< 1000"}
{"smiles": "Clc1cc(Cl)cc(N2CCc3oc(-c4ccccn4)nc3C2)c1", "note": "[Compound 162, 5-(3,5-Dichlorophenyl)-2-(pyridin-2-yl)-4,5,6,7-tetrahydrooxazolo[4,5-c]pyridine]", "IC50": "< 1000"}
{"smiles": "Fc1ccc(-c2nc3c(o2)CCN(c2ccccc2Cl)C3)nc1", "note": "[Compound 167, 5-(2-Chlorophenyl)-2-(5-fluoropyridin-2-yl)-4,5,6,7-tetrahydrooxazolo[4,5-c]pyridine]", "IC50": "< 1000"}
{"smiles": "Clc1cccc(N2CCc3oc(-c4ccccn4)nc3C2)c1", "note": "[Compound 115, 5-(3-chlorophenyl)-2-(pyridin-2-yl)-4,5,6,7-tetrahydrooxazolo[4,5-c]pyridine]", "IC50": "< 1000"}
{"smiles": "Cc1nc(N2CCCc3oc(-c4ccccn4)nc3C2)cs1", "note": "[Compound 208, 5-(2-Methylthiazol-4-yl)-2-(pyridin-2-yl)-5,6,7,8-tetrahydro-4H-oxazolo[4,5-c]azepine]", "IC50": "> 10000"}
{"smiles": "Cc1nc(-c2nc3c(o2)CCN(c2ccccn2)C3)cs1", "note": "[Compound 161, 2-(2-Methylthiazol-4-yl)-5-(pyridin-2-yl)-4,5,6,7-tetrahydrooxazolo[4,5-c]pyridine]", "IC50": "< 1000"}
{"smiles": "Fc1cc(N2CCc3oc(-c4ccccn4)nc3C2)cc(F)c1F", "note": "[Compound 153, 2-(Pyridin-2-yl)-5-(3,4,5-trifluorophenyl)-4,5,6,7-tetrahydrooxazolo[4,5-c]pyridine]", "IC50": "< 1000"}
{"smiles": "Cc1nc(-c2nc3c(o2)CCCN(c2ccccn2)C3)cs1", "note": "[Compound 207, 2-(2-Methylthiazol-4-yl)-5-(pyridin-2-yl)-5,6,7,8-tetrahydro-4H-oxazolo[4,5-c]azepine]", "IC50": "< 10000"}
{"smiles": "Clc1cc(Cl)cc(N2CCCc3oc(-c4ccccn4)nc3C2)c1", "note": "[Compound 209, 5-(3,5-Dichlorophenyl)-2-(pyridin-2-yl)-5,6,7,8-tetrahydro-4H-oxazolo[4,5-c]azepine]", "IC50": "< 1000"}
{"smiles": "COC(=O)N1CCc2oc(-c3ccccn3)nc2C1", "note": "[Compound 151, Methyl 2-(pyridin-2-yl)-6,7-dihydrooxazolo[4,5-c]pyridine-5(4H)-carboxylate]", "IC50": "> 10000"}
{"smiles": "Clc1cccc(N2CCc3oc(-c4ccncn4)nc3C2)c1", "note": "[Compound 120, 5-(3-chlorophenyl)-2-(pyrimidin-4-yl)-4,5,6,7-tetrahydrooxazolo[4,5-c]pyridine]", "IC50": "< 10000"}
{"smiles": "O=C(CN1CCc2oc(-c3cccc(F)c3)nc2C1)c1ccc(F)cc1", "note": "[Compound 191, 1-(4-Fluorophenyl)-2-(2-(3-fluorophenyl)-6,7-dihydrooxazolo[4,5-c]pyridin-5(4H)-yl)ethanone]", "IC50": "> 10000"}
{"smiles": "Fc1ccc(Cl)c(N2CCc3oc(-c4ccccn4)nc3C2)c1", "note": "[Compound 175, 5-(2-Chloro-5-fluorophenyl)-2-(pyridin-2-yl)-4,5,6,7-tetrahydrooxazolo[4,5-c]pyridine]", "IC50": "< 1000"}
{"smiles": "Fc1ccc(N2CCCc3oc(-c4ncccn4)nc3C2)cc1F", "note": "[Compound 200, 5-(3,4-Difluorophenyl)-2-(pyrimidin-2-yl)-5,6,7,8-tetrahydro-4H-oxazolo[4,5-c]azepine]", "IC50": "> 10000"}
{"smiles": "Fc1cccc(N2CCc3oc(-c4ccncn4)nc3C2)c1", "note": "[Compound 119, 5-(3-fluorophenyl)-2-(pyrimidin-4-yl)-4,5,6,7-tetrahydrooxazolo[4,5-c]pyridine]", "IC50": "< 10000"}
{"smiles": "N#Cc1cc(F)cc(N2CCc3oc(-c4cncnc4)nc3C2)c1", "note": "[Compound 160, 3-Fluoro-5-(2-(pyrimidin-5-yl)-6,7-dihydrooxazolo[4,5-c]pyridin-5(4H)-yl)benzonitrile]", "IC50": "> 10000"}
{"smiles": "Clc1ccccc1C1CCc2oc(-c3ccccn3)nc2C1", "note": "(racemic) [Compound 219, 5-(2-Chlorophenyl)-2-(pyridin-2-yl)-4,5,6,7-tetrahydrobenzo[d]oxazole]", "IC50": "< 1000"}
{"smiles": "Clc1cccc(N2CCc3oc(-c4ccccn4)nc3C2)c1Cl", "note": "[Compound 170, 5-(2,3-Dichlorophenyl)-2-(pyridin-2-yl)-4,5,6,7-tetrahydrooxazolo[4,5-c]pyridine]", "IC50": "< 1000"}
